The text below walks through data of patent US20070105808A1, “Inhibition of histone deacetylase” (MethylGene, Inc., priority 1999, published 2007).

Where a SMILES comes first, the peptide text is derived from it. [ ]: non-standard residue; d: D form. Aoe = N[C@@H](CCCCCC(=O)[C@@H]1CO1)C(=O)O; d = 2'-deoxy (DNA); m = 2'-O-methyl

For one series, the system named is HDAC-1 protein. The series is described as follows: Western blotting analysis of HDAC-1 protein expression in transfected T24 cells. The class given is cell-based, human. Conditions: FIG. 4; second generation oligonucleotides, T24 cells transfected twice with 50 nM, lysates 24 h after second transfection. The procedure: (§1) To do this, T24 cells were transfected with oligonucleotide using lipofectin as described above. Twenty-four hours later, the cells were lysed according to standard procedures. The whole cell extracts (50 μg) were resolved on 7-15% gradient SDS/PAGE, transferred to PVDF membrane (Amersham, Arlington Heights, Ill.), and subjected to Western blotting analysis with rabbit polyclonal HDAC1- and HDAC-2 specific antibodies (1:500, Santa Cruz Biotech., Santa Cruz, Calif.) were used. Detection was accomplished with a secondary anti-rabbit IgG-HR peroxidase antibody and an enhanced chemiluminescence detection kit (Amersham) accordingly to manufacturer's instructions.
T24 cells were transfected twice as described above with 50 nM oligonucleotide. Cell lysates were prepared twenty-four hours following the second transfection, resolved on 7-15% gradient SDS-PAGE, and transferred to PVDF membrane. The PVDF membrane blot was first blotted with anti-HDAC-1 antibody. Following detection with horseradish peroxidase-labelled secondary antibody and enhanced chemiluminescence, the blot was stripped, and re-probed with anti-HDAC-2 antibody. Following detection, the blot was stripped for a second time and re-probed with an actin-specific antibody to verify equal protein loading in the lanes.

Another series has as its system HDAC-2 protein. The series can be described thus: Western blotting analysis of HDAC-2 protein expression in transfected T24 cells. The class given is cell-based, human. As to conditions: FIG. 3; 50 nM second generation oligonucleotide, T24 cells transfected twice, 48 hours after the first transfection. The procedure: as §1
Twenty-four hours later, the cells were transfected a second time with the same amount of the same oligonucleotide. Twenty-four hours after this (i.e., 48 hours after the first transfection), cellular proteins were prepared, resolved on 7-15% gradient SDS-PAGE, and subjected to Western blotting analysis as described in Example 1 with rabbit polyclonal HDAC2 specific antibody (1:500, Santa Cruz Biotech). Following blotting with the secondary anti-rabbit IgG-HR peroxidase antibody and visualization with the enhanced chemiluminescence detection kit (Amersham), the blot was stripped and re-probed with an antibody specific to actin to verify equal loading of all wells (data not shown). […]

Series [1] has as its system cell cycle progression in cells. Conditions: literature reports; cited from earlier work.
A further series relates to histone deacetylase. Conditions: Yoshida et al.; cited from earlier work.

“5′-CAAUCGTCAGAGACTCCGAA-3′ (antisense CAAUCGTCAGAGACTCCGAA; sugars from the 5' end m4 d12 m4, backbone and methylation of C not given here) [MG2609, mismatch control oligonucleotide of HDAC-1 (MG2608)]”: the “inhibition of HDAC-1 protein expression” value in the series on HDAC-1 protein is given as “failed to inhibit”.
As to “5′-CUCCTTGACTGTACGCCAUG-3′ [MG2636]”, the “inhibition of HDAC-2 protein expression” value in the series on HDAC-2 protein is recorded as “able to inhibit HDAC-2 protein expression”.
For the compound `C/C=C1\NC(=O)[C@H]2CSSCC/C=C/[C@H](CC(=O)N[C@H](C(C)C)C(=O)N2)OC(=O)[C@H](C(C)C)NC1=O` [FR901228], the cell cycle progression entry in series [1] is on record as “inhibit cell cycle progression in cells”.
In the case of `CC(/C=C/C(=O)NO)=C\[C@@H](C)C(=O)c1ccc(N(C)C)cc1` [Trichostatin A], the “inhibition of histone deacetylase activity” value in the series with histone deacetylase is given as “inhibit histone deacetylase activity”. In series [1], the cell cycle progression entry was “arrest cell cycle progression in cells in the G1 and G2 phases”.
For `O=C(CCCCCCC(=O)Nc1ccccc1)NO` [suberoylanilide hydroxamic acid], the cell cycle progression result in series [1] is on record as “inhibit cell cycle progression in cells”.
Consider `O=C1N[C@@H](Cc2ccccc2)C(=O)N2CCC[C@@H]2C(=O)N[C@@H](CCCCCC(=O)[C@@H]2CO2)C(=O)N[C@H]1Cc1ccccc1` [trapoxin] (cyclo(FF[dP][Aoe])), for which, in series [1], the cell cycle progression entry is listed as “inhibit cell cycle progression in cells”.
On to `CC(/C=C/C(=O)NO[C@@H]1O[C@H](CO)[C@@H](O)[C@H](O)[C@H]1O)=C\[C@@H](C)C(=O)c1ccc(N(C)C)cc1` [trichostatin C], for which, in series [1], the cell cycle progression entry is on record as “inhibit cell cycle progression in cells”.
depudecin: the cell cycle progression entry in series [1] is “inhibit cell cycle progression in cells”.
